Where two headings read alike, the source gives them in different places.
Biological target: T1, CETP (Homo sapiens, UniProt P11597)
T1 construct: made in house; host or cells: CHO cells (serum-free conditioned medium)
T1 sequence (P11597 18-493): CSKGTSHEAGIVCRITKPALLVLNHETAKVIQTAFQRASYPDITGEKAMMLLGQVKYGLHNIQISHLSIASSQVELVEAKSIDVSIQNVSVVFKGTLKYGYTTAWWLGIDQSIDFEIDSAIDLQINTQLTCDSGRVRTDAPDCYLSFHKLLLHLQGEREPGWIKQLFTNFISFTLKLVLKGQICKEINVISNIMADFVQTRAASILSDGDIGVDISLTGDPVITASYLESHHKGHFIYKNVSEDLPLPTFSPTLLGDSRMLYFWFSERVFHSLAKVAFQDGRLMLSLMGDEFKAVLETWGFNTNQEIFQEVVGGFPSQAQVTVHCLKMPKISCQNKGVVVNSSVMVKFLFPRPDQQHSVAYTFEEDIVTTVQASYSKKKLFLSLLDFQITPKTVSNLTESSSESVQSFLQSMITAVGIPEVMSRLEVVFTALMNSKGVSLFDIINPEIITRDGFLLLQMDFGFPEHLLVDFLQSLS
Experiment: CETP activity in vitro: transfer of [3H]CE from HDL donor to LDL acceptor particles
Type: biochemical
Summary of the method: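 CETP from conditioned medium of CETP-transfected CHO cells incubated with [3H]CE-labelled HDL donor and LDL acceptor, pH 7.4 Tris buffer with NaCl, EDTA and 1% BSA, 2 h at 37 °C. LDL precipitated with dextran sulfate/MgCl2, filtered, and transferred radioactivity counted; IC50 reported.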

[1] = Table 6, compounds of formula T-6, read-out: IC50
[2] = Table 7, compounds of formula T-7, read-out: IC50
[3] = IC50, Table 7, compounds of formula T-7

| IC50 [1] | IC50 [2] | Compound | also measured |
| --- | --- | --- | --- |
| > 100 µM | – | COC(=O)c1c(C(F)F)nc(C(F)(F)F)c(CSc2ccc(NC(C)=O)cc2)c1CC(C)C [Compound 204, Methyl 5-[(4-(Acetylamino)phenyl)thiomethyl]-2-(difluoromethyl)-4-(2-methylpropyl)-6-(trifluoromethyl)-3-pyridinecarboxylate] | CE transferred (@ 100 μm, footnotes A and B of Table 6): ^B80% CE transferred @ 100 μm. |
| 20 µM | – | COC(=O)c1c(C(F)F)nc(C(F)(F)F)c(CSc2nc3ccccc3o2)c1CC(C)C [Compound 205, Methyl 5-[(Benzoxazol-2-yl)thiomethyl]-2-(difluoromethyl)-4-(2-methylpropyl)-6-(trifluoromethyl)-3-pyridinecarboxylate] | – |
| 50 µM | – | COC(=O)c1c(C(F)F)nc(C(F)(F)F)c(CSc2ccc(Br)cc2OC(F)(F)F)c1CC(C)C [Compound 206, Methyl 5-[(4-Bromo-2-(trifluoromethoxy)phenyl)thiomethyl]-2-(difluoromethyl)-4-(2-methylpropyl)-6-(trifluoromethyl)-3-pyridinecarboxylate] | – |
| 60 µM | – | COC(=O)c1c(C(F)F)nc(C(F)(F)F)c(CSc2ccccc2OC)c1CC(C)C [Compound 208, Methyl 5-[(2-Methoxyphenyl)thiomethyl]-2-(difluoromethyl)-4-(2-methylpropyl)-6-(trifluoromethyl)-3-pyridinecarboxylate] | – |
| 10 µM | – | COC(=O)c1c(C(F)F)nc(C(F)(F)F)c(CSc2nc3ccc(C)cc3[nH]2)c1CC(C)C [Compound 209, Methyl 5-[(5-Methylbenzimidazol-2-yl)thiomethyl]-2-(difluoromethyl)-4-(2-methylpropyl)-6-(trifluoromethyl)-3-pyridinecarboxylate] | – |
| 20 µM | – | COC(=O)c1c(C(F)F)nc(C(F)(F)F)c(CSc2nc3ccccc3[nH]2)c1CC(C)C [Compound 210, Methyl 5-[(Benzimidazol-2-yl)thiomethyl]-2-(difluoromethyl)-4-(2-methylpropyl)-6-(trifluoromethyl)-3-pyridinecarboxylate] | – |
| 45 µM | – | COC(=O)c1c(C(F)F)nc(C(F)(F)F)c(CSc2cccc(OC)c2)c1CC(C)C [Compound 211, Methyl 5-[(3-Methoxyphenyl)thiomethyl]-2-(difluoromethyl)-4-(2-methylpropyl)-6-(trifluoromethyl)-3-pyridinecarboxylate] | – |
| 15 µM | – | COC(=O)c1c(C(F)F)nc(C(F)(F)F)c(CSc2nc3ccccc3s2)c1CC(C)C [Compound 212, Methyl 5-[(Benzothiazol-2-yl)thiomethyl]-2-(difluoromethyl)-4-(2-methylpropyl)-6-(trifluoromethyl)-3-pyridinecarboxylate] | – |
| 15 µM | – | COC(=O)c1c(C(F)F)nc(C(F)(F)F)c(CSc2cccc(Cl)c2)c1CC(C)C [Compound 213, Methyl 5-[(3-Chlorophenyl)thiomethyl]-2-(difluoromethyl)-4-(2-methylpropyl)-6-(trifluoromethyl)-3-pyridinecarboxylate] | – |
| 40 µM | – | COC(=O)c1c(C(F)F)nc(C(F)(F)F)c(CSc2ccccn2)c1CC(C)C [Compound 216, Methyl 5-[(2-Pyridyl)thiomethyl]-2-(difluoromethyl)-4-(2-methylpropyl)-6-(trifluoromethyl)-3-pyridinecarboxylate] | – |
| 50 µM | – | COC(=O)c1c(C(F)F)nc(C(F)(F)F)c(CSc2ccccc2Br)c1CC(C)C [Compound 217, Methyl 5-[(2-bromophenyl)thiomethyl]-2-(difluoromethyl)-4-(2-methylpropyl)-6-(trifluoromethyl)-3-pyridinecarboxylate] | – |
| – | 25 µM | COC(=O)c1c(C(F)F)nc(C(F)(F)F)c(SCc2ccccc2)c1CC(C)C [Compound 219] | – |
| – | 20 µM | COC(=O)c1c(C(F)F)nc(C(F)(F)F)c(SCc2ccc(Cl)cc2)c1CC(C)C [Compound 220] | – |
| – | 40 µM | COC(=O)c1c(C(F)F)nc(C(F)(F)F)c(SCc2ccc(OC)cc2)c1CC(C)C [Compound 221] | – |
| – | 15 µM | COC(=O)c1c(C(F)F)nc(C(F)(F)F)c(SCc2ccc(OCc3ccccc3)c(OCc3ccccc3)c2)c1CC(C)C [Compound 222] | – |
| – | 50 µM | COC(=O)c1c(C(F)F)nc(C(F)(F)F)c(SCc2ccccc2[N+](=O)[O-])c1CC(C)C [Compound 223] | – |

| IC50 [1] | IC50 [2] | Compound | also measured |
| --- | --- | --- | --- |
| – | 25 µM | COC(=O)c1c(C(F)F)nc(C(F)(F)F)c(SCc2ccc(OCc3ccccc3)cc2)c1CC(C)C [Compound 224] | – |
| – | 10 µM | COC(=O)c1c(C(F)F)nc(C(F)(F)F)c(SCc2ccc(-c3ccccc3)cc2)c1CC(C)C [Compound 225] | – |
| – | 60 µM | COC(=O)c1c(C(F)F)nc(C(F)(F)F)c(SCc2ccc3c(c2Cl)OCO3)c1CC(C)C [Compound 226, Methyl 5-[(2-Chloro-3,4-methylenedioxyphenyl)methylthio]-2-(difluoromethyl)-4-(2-methylpropyl)-6-(trifluoromethyl)-3-pyridinecarboxylate] | – |
| – | 30 µM | COC(=O)c1c(C(F)F)nc(C(F)(F)F)c(SCc2c3ccccc3cc3ccccc23)c1CC(C)C [Compound 227] | – |
| – | – | COC(=O)c1c(C(F)F)nc(C(F)(F)F)c(SCc2cccc(Br)c2)c1CC(C)C [Compound 229] | IC50 [3]: 50 µM |
| – | 50 µM | COC(=O)c1c(C(F)F)nc(C(F)(F)F)c(SCc2cccc([N+](=O)[O-])c2)c1CC(C)C [Compound 230] | – |
| – | – | COC(=O)c1c(C(F)F)nc(C(F)(F)F)c(SCc2cccc(OC)c2)c1CC(C)C [Compound 231] | IC50 [3]: 50 µM |
| – | 60 µM | COC(=O)c1c(C(F)F)nc(C(F)(F)F)c(SCc2ccccn2)c1CC(C)C [Compound 233, Methyl 5-[(2-pyridyl)methylthio]-2-(difluoromethyl)-4-(2-methylpropyl)-6-(trifluoromethyl)-3-pyridinecarboxylate] | – |
| – | 20 µM | COC(=O)c1c(C(F)F)nc(C(F)(F)F)c(SCc2ccc(C(F)(F)F)cc2C(F)(F)F)c1CC(C)C [Compound 234] | – |
| – | 30 µM | COC(=O)c1c(C(F)F)nc(C(F)(F)F)c(SCc2ccc(OC(F)(F)F)cc2)c1CC(C)C [Compound 235] | – |
| – | 30 µM | COC(=O)c1c(C(F)F)nc(C(F)(F)F)c(SCc2ccc(Cl)cc2Cl)c1CC(C)C [Compound 237] | – |
| – | 45 µM | COC(=O)c1c(C(F)F)nc(C(F)(F)F)c(SCc2ccccc2Br)c1CC(C)C [Compound 239] | – |
| – | 50 µM | COC(=O)c1c(C(F)F)nc(C(F)(F)F)c(SCc2ccc3ccccc3n2)c1CC(C)C [Compound 241, Methyl 5-[(2-quinolinyl)methylthio]-2-(difluoromethyl)-4-(2-methylpropyl)-6-(trifluoromethyl)-3-pyridinecarboxylate] | – |
| – | 50 µM | COC(=O)c1c(C(F)F)nc(C(F)(F)F)c(SCc2cc(Cl)cc(Cl)c2)c1CC(C)C [Compound 243] | – |
| – | 50 µM | COC(=O)c1c(C(F)F)nc(C(F)(F)F)c(SCc2c(F)c(F)c(F)c(F)c2F)c1CC(C)C [Compound 244] | – |
| – | 30 µM | COC(=O)c1c(C(F)F)nc(C(F)(F)F)c(SCc2ccc3c(c2)C(C)(C)CCC3(C)C)c1CC(C)C [Compound 245, Methyl 5-[(1,2,3,4-tetrahydro-1,1,4,4-tetramethyl-6-naphthyl)methylthio]-2-(difluoromethyl)-4-(2-methyl-propyl)-6-(trifluoromethyl)-3-pyridinecarboxylate] | – |

Source: patent publication US6794396B2, “Substituted pyridines useful for inhibiting cholesteryl ester transfer protein activity” (Pharmacia Corporation, priority 1998, dated 2004)
